Test results as given in US11596639B2, “Substituted indole Mcl-1 inhibitors” (Vanderbilt University, priority 2016, dated 2023).
Where two headings read alike, the source gives them in different places.

Assays:
Mcl-1 = Mcl-1 (Homo sapiens (Human), UniProt Q07820); assay: Fluorescence polarization anisotropy (FPA) competition assay, FITC-Bak or FITC-Bim BH3 peptide; format: binding; conditions: read-out: Ki for Inhibition of Mcl-1 by FPA assay
[1] = test system: H929 human cancer cell lines; assay: Cellular viability / proliferation (Cell TiterGlo, 72 h); format: cell-based
Outline: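 Compounds were added as 2-fold serial dilutions from 50 μM (final DMSO <1%) to H929 cells seeded 1,000 per well in 10% FBS medium one day earlier.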

[2] = Homo sapiens, NCI-H929, 72 h, read-out: GI50 on cellular proliferation of H929 human cancer cell lines, H929 cells, 72 h, Cell TiterGlo, 10% FBS

Chain of Mcl-1 (Q07820 172-327): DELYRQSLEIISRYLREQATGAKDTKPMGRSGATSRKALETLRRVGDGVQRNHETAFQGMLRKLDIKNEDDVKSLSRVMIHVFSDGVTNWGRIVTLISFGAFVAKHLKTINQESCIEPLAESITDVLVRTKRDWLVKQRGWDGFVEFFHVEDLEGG

SMILES	Ki (Mcl-1) [nM]	GI50 [1, 2] [nM]	GI50 ([1]; H929 cells, 72 h, Cell TiterGlo, 10% FBS, read-out: GI50 on cellular proliferation of H929 human cancer cell lines) [nM]
Cc1cc(OCCCc2c3n(c4c(-c5c(C)nn(C)c5C)c(Cl)ccc24)[C@H](C)CN(c2cc(C(=O)O)c4ncccc4c2)C3=O)cc(C)c1Cl [Example 138, (R)-6-(7-chloro-10-(3-(4-chloro-3,5-dimethylphenoxy)propyl)-4-methyl-1-oxo-6-(1,3,5-trimethyl-1H-pyrazol-4-yl)-3,4-dihydropyrazino[1,2-a]indol-2(1H)-yl)quinoline-8-carboxylic acid]	2.2	4800	
Cc1cc(OCCCc2c3n(c4c(-c5c(C)nn(C)c5C)c(Cl)ccc24)[C@H](C)CN(c2cc(C(C)C)cc4cc(C(N)=O)n(C)c24)C3=O)cc(C)c1Cl [Example 422, (R)-7-(7-Chloro-10-(3-(4-chloro-3,5-dimethylphenoxy)propyl)-4-methyl-1-oxo-6-(1,3,5-trimethyl-1H-pyrazol-4-yl)-3,4-dihydropyrazino[1,2-a]indol-2(1H)-yl)-5-isopropyl-1-methyl-1H-indole-2-carboxamide]	< 1	830	
Cc1cc(OCCCc2c3n(c4c(-c5c(C)nn(C)c5C)c(Cl)ccc24)[C@H](C)CN(c2nn(CCN4CCOCC4)c4cc(C(=O)O)ccc24)C3=O)cc(C)c1Cl [Example 50, (R)-3-(7-chloro-10-(3-(4-chloro-3,5-dimethylphenoxy)propyl)-4-methyl-1-oxo-6-(1,3,5-trimethyl-1H-pyrazol-4-yl)-3,4-dihydropyrazino[1,2-a]indol-2(1H)-yl)-1-(2-morpholinoethyl)-1H-indazole-6-carboxylic acid]	< 1	710	
Cc1cc(OCCCc2c3n(c4c(-c5c(C)nn(C)c5C)c(Cl)ccc24)[C@H](C)CN(c2coc4ccccc24)C3=O)cc(C)c1Cl (single isomer, unassigned) [Example 237]	14	7600	
Cc1cc(OCCCc2c3n(c4c(-c5c(C)nn(C)c5C)c(Cl)ccc24)[C@H](C)CN(c2cccc4cc(C(=O)O)n(C)c24)C3=O)cc(C)c1Cl [Example 178, (R)-7-(7-Chloro-10-(3-(4-chloro-3,5-dimethylphenoxy)propyl)-4-methyl-1-oxo-6-(1,3,5-trimethyl-1H-pyrazol-4-yl)-3,4-dihydropyrazino[1,2-a]indol-2(1H)-yl)-1-methyl-1H-indole-2-carboxylic acid]	< 1	< 200	
Cc1cc(OCCCc2c3n(c4c(-c5c(C)nn(C)c5C)c(Cl)ccc24)[C@H](C)CN(c2cccc4cc(C(=O)O)n(Cc5cncnc5)c24)C3=O)cc(C)c1Cl [Example 311, 7-[(4R)-7-chloro-10-[3-(4-chloro-3,5-dimethyl-phenoxy)propyl]-4-methyl-1-oxo-6-(1,3,5-trimethylpyrazol-4-yl)-3,4-dihydropyrazino[1,2-a]indol-2-yl]-1-(pyrimidin-5-ylmethyl)indole-2-carboxylic acid]	< 1	3400	
Cc1cc(OCCCc2c3n(c4c(-c5c(C)ncnc5C)c(Cl)ccc24)[C@H](C)CN(c2cn(C)c4ccc(C(=O)O)cc24)C3=O)cc(C)c1Cl [Example 177, 3-[(4R)-7-chloro-10-[3-(4-chloro-3,5-dimethyl-phenoxy)propyl]-6-(4,6-dimethylpyrimidin-5-yl)-4-methyl-1-oxo-3,4-dihydropyrazino[1,2-a]indol-2-yl]-1-methyl-indole-5-carboxylic acid]	< 1	270	
Cc1cc(OCCCc2c3n(c4c(-c5c(C)nn(C)c5C)c(Cl)ccc24)[C@H](C)CN(c2cn(Cc4ccccn4)c4cc(C(=O)O)ccc24)C3=O)cc(C)c1Cl [Example 338, (R)-3-(7-Chloro-10-(3-(4-chloro-3,5-dimethylphenoxy)propyl)-4-methyl-1-oxo-6-(1,3,5-trimethyl-1H-pyrazol-4-yl)-3,4-dihydropyrazino[1,2-a]indol-2(1H)-yl)-1-(pyridin-2-ylmethyl)-1H-indole-6-carboxylic acid]	< 1	2000	
Cc1cc(OCCCc2c3n(c4c(-c5c(C)n[nH]c5C)c(Cl)ccc24)[C@H](C)CN(c2cc(C(=O)O)c4ccn(C)c4c2)C3=O)cc(C)c1Cl [Example 70, (R)-6-(7-chloro-10-(3-(4-chloro-3,5-dimethylphenoxy)propyl)-6-(3,5-dimethyl-1H-pyrazol-4-yl)-4-methyl-1-oxo-3,4-dihydropyrazino[1,2-a]indol-2(1H)-yl)-1-methyl-1H-indole-4-carboxylic acid]	< 1	2400	
Cc1cc(OCCCc2c3n(c4c(-c5c(C)nn(C)c5C)c(Cl)ccc24)[C@H](C)CN(c2cc(OCC4CCN(C)C4)cc4c2cc(C(=O)O)n4C)C3=O)cc(C)c1Cl (some centres unmarked) [Example 331, 4-((M, R)-7-Chloro-10-(3-(4-chloro-3,5-dimethylphenoxy)propyl)-4-methyl-1-oxo-6-(1,3,5-trimethyl-1H-pyrazol-4-yl)-3,4-dihydropyrazino[1,2-a]indol-2(1H)-yl)-1-methyl-6-((1-methylpyrrolidin-3-yl)methoxy)-1H-indole-2-carboxylic acid]	1.1		2300
COc1cc(N2C[C@@H](C)n3c(c(CCCOc4cc(C)c(Cl)c(C)c4)c4ccc(Cl)c(-c5c(C)nn(C)c5C)c43)C2=O)c2c(c1)cc(C(=O)O)n2C [Example 342, (R)-7-(7-Chloro-10-(3-(4-chloro-3,5-dimethylphenoxy)propyl)-4-methyl-1-oxo-6-(1,3,5-trimethyl-1H-pyrazol-4-yl)-3,4-dihydropyrazino[1,2-a]indol-2(1H)-yl)-5-methoxy-1-methyl-1H-indole-2-carboxylic acid]	< 1	230	
CC[C@@H]1Cn2c(c(CCCOc3cc(C)c(Cl)c(C)c3)c3ccc(Cl)c(-c4c(C)nn(C)c4C)c32)C(=O)N1c1cc(C(=O)O)c2c(ccn2C)c1 [Example 41, (R)-5-(7-chloro-10-(3-(4-chloro-3,5-dimethylphenoxy)propyl)-3-ethyl-1-oxo-6-(1,3,5-trimethyl-1H-pyrazol-4-yl)-3,4-dihydropyrazino[1,2-a]indol-2(1H)-yl)-1-methyl-1H-indole-7-carboxylic acid]	1.8	1200	
CCCn1cc(N2C[C@@H](C)n3c(c(CCCOc4cc(C)c(Cl)c(C)c4)c4ccc(Cl)c(-c5c(C)nn(C)c5C)c43)C2=O)c2cc(C(=O)O)ccc21 [Example 158, (R)-3-(7-Chloro-10-(3-(4-chloro-3,5-dimethylphenoxy)propyl)-4-methyl-1-oxo-6-(1,3,5-trimethyl-1H-pyrazol-4-yl)-3,4-dihydropyrazino[1,2-a]indol-2(1H)-yl)-1-propyl-1H-indole-5-carboxylic acid]	< 1	480	
Cc1cc(OCCCc2c3n(c4c(-c5c(C)nn(CC6CCN(C)CC6)c5C)c(Cl)ccc24)[C@H](C)CN(c2cn(C)c4c(C)cc(C(=O)O)cc24)C3=O)cc(C)c1Cl [Example 161, (R)-3-(7-chloro-10-(3-(4-chloro-3,5-dimethylphenoxy)propyl)-6-(3,5-dimethyl-1-((1-methylpiperidin-4-yl)methyl)-1H-pyrazol-4-yl)-4-methyl-1-oxo-3,4-dihydropyrazino[1,2-a]indol-2(1H)-yl)-1,7-dimethyl-1H-indole-5-carboxylic acid]	2.8	480	
Cc1cc(OCCCc2c3n(c4c(-c5c(C)ncnc5C)c(Cl)ccc24)CCCN(c2ccc(C(=O)O)c4ncccc24)C3=O)cc(C)c1Cl [Example 147, 5-[8-Chloro-11-[3-(4-chloro-3,5-dimethyl-phenoxy)propyl]-7-(4,6-dimethylpyrimidin-5-yl)-1-oxo-4,5-dihydro-3H-[1,4]diazepino[1,2-a]indol-2-yl]quinoline-8-carboxylic acid]	1.8	4300	
Cc1cc(OCCCc2c3n(c4c(-c5c(C)ncnc5C)c(Cl)ccc24)[C@H](C)CN(c2cn(C)c4ccc(C(N)=O)cc24)C3=O)cc(C)c1Cl [Example 269, 3-[(4R)-7-chloro-10-[3-(4-chloro-3,5-dimethyl-phenoxy)propyl]-6-(4,6-dimethylpyrimidin-5-yl)-4-methyl-1-oxo-3,4-dihydropyrazino[1,2-a]indol-2-yl]-1-methyl-indole-5-carboxamide]	7.4	760	
COCCn1c(C(=O)O)cc2cccc(N3C[C@@H](C)n4c(c(CCCOc5cc(C)c(Cl)c(C)c5)c5ccc(Cl)c(-c6c(C)nn(C)c6C)c54)C3=O)c21 [Example 256, 7-[(4R)-7-chloro-10-[3-(4-chloro-3,5-dimethyl-phenoxy)propyl]-4-methyl-1-oxo-6-(1,3,5-trimethylpyrazol-4-yl)-3,4-dihydropyrazino[1,2-a]indol-2-yl]-1-(2-methoxyethyl)indole-2-carboxylic acid]	< 1	270	
CNS(=O)(=O)c1ccc2c(c1)c(N1C[C@@H](C)n3c(c(CCCOc4cc(C)c(Cl)c(C)c4)c4ccc(Cl)c(-c5c(C)nn(C)c5C)c43)C1=O)cn2C [Example 267, (R)-3-(7-chloro-10-(3-(4-chloro-3,5-dimethylphenoxy)propyl)-4-methyl-1-oxo-6-(1,3,5-trimethyl-1H-pyrazol-4-yl)-3,4-dihydropyrazino[1,2-a]indol-2(1H)-yl)-N,1-dimethyl-1H-indole-5-sulfonamide]	4.7	3100	
Cc1nc(-c2ccc3c(c2)c(N2C[C@@H](C)n4c(c(CCCOc5cc(C)c(Cl)c(C)c5)c5ccc(Cl)c(-c6c(C)nn(C)c6C)c54)C2=O)cn3C)no1 [Example 429, (R)-7-Chloro-10-(3-(4-chloro-3,5-dimethylphenoxy)propyl)-4-methyl-2-(1-methyl-5-(5-methyl-1,2,4-oxadiazol-3-yl)-1H-indol-3-yl)-6-(1,3,5-trimethyl-1H-pyrazol-4-yl)-3,4-dihydropyrazino[1,2-a]indol-1(2H)-one]	1.8	970	
